# Assay results published in PubChem BioAssay (NCI).
#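 A five-concentration, 48-hour dose response in 96-well plates underlies each endpoint, interpolated linearly between surrounding concentrations. GI50 = concentration required for 50% inhibition of growth. Definition used: TGI = concentration required for complete inhibition of growth.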
# Tests used:
# Assay in all cases: NCI-60 cell line screen, 48 h
# DLD-1 colon = tested on: DLD-1 colon
# M19-MEL melanoma = tested on: M19-MEL melanoma
# XF 498 CNS = tested on: XF 498 CNS
# RXF-631 renal = tested on: RXF-631 renal
# LXFL 529 NSCLC = tested on: LXFL 529 NSCLC
# DMS 273 small cell lung = tested on: DMS 273 small cell lung
# DU-145 prostate = tested on: DU-145 prostate
# T-47D breast = tested on: T-47D breast
# NCI/ADR-RES ovarian = tested on: NCI/ADR-RES ovarian
# MDA-MB-231 breast = tested on: MDA-MB-231 breast
# PC-3 prostate = tested on: PC-3 prostate
SMILES,TGI (DLD-1 colon),TGI (M19-MEL melanoma),TGI (XF 498 CNS),TGI (RXF-631 renal),TGI (LXFL 529 NSCLC),TGI (DMS 273 small cell lung),TGI (DU-145 prostate),TGI (T-47D breast),TGI (NCI/ADR-RES ovarian),TGI (MDA-MB-231 breast),TGI (PC-3 prostate),GI50 (M19-MEL melanoma),GI50 (LXFL 529 NSCLC),GI50 (DMS 273 small cell lung)
O=C1C2C3CC(C4C5C=CC(C5)C34)C2C2C3CC(C12)C1C2C=CC(C2)C31 (stereo not given),> 100 µM,> 100 µM,> 100 µM,> 100 µM,> 100 µM,> 100 µM,,,,,,,,
Clc1cccc(C2N3CCCCC3[C@@H]3c4[nH]c5ccccc5c4CCN23)c1 (stereo not given in full),> 100 µM,48 µM,40 µM,,,> 100 µM,,,,,,,,
Cc1cccc(C)c1N1C(=O)C(=O)C(c2nc3ccccc3s2)/C(=N\N)C1=O (stereo not given),> 100 µM,> 100 µM,,> 100 µM,> 100 µM,> 100 µM,,,,,,,,
COc1ccc(OC)c(/C=N/N=C(\N)NO)c1,> 100 µM,> 100 µM,58.3 µM,> 100 µM,> 100 µM,> 100 µM,,,,,,,,
O=C(/C=C/c1cccc([N+](=O)[O-])c1)c1ccc([N+](=O)[O-])cc1,> 100 µM,> 100 µM,> 100 µM,> 100 µM,> 100 µM,> 100 µM,,,,,,,,
O=c1c(Cl)c(Cl)cnn1CCCl,3.29 µM,8.75 µM,11.7 µM,,3.1 µM,21 µM,34 µM,14.6 µM,,,,,,
COC1(OC)C2(Cl)C(Cl)=C(Cl)C1(Cl)C1C2C2CC1(C(=O)O)c1ccccc12 (stereo not given),35.6 µM,38.3 µM,,42.8 µM,28 µM,41.2 µM,,,,,,,,
O=C(Nc1ccc(Cl)cc1Cl)OC(Cn1cncn1)c1ccc(Cl)cc1Cl (stereo not given),35 µM,30.8 µM,27.9 µM,33.2 µM,30.6 µM,31.4 µM,,,,,,,,
CCNC(=O)OCc1c(COC(=O)NCC)c(-c2ccc(Cl)c(Cl)c2)n2c1CCC2,72.3 µM,58.1 µM,36.3 µM,,34.8 µM,31.1 µM,,,,,,,,
COc1c(-c2ccccc2)nc2ccc(Oc3ccccc3)nn12,> 100 µM,> 100 µM,66.9 µM,,> 100 µM,> 100 µM,,,,,,,,
O=C1c2ccccc2C2CCC1c1ccccc12 (stereo not given),> 100 µM,96.1 µM,91.6 µM,,> 100 µM,71.4 µM,,,,,,,,
Cn1cc2ccccc2c1-c1nc(F)nc(Oc2ccc3c(c2)CC[C@@H]2C3CC[C@@]3(C)C2C[C@H](O)[C@@H]3O)n1 (stereo not given in full),22.1 µM,41.9 µM,60.3 µM,,27.4 µM,22 µM,,,,,,,,
O=C(/C=C\c1cccc2ccccc12)c1ccc(Cl)cc1Cl,40.8 µM,35.9 µM,,74.3 µM,32.8 µM,34.8 µM,,,,,,,,
N#CC(C(=O)/C(=N\NC(N)=O)C(C#N)c1ccccc1)c1ccccc1 (stereo not given),> 100 µM,,,> 100 µM,> 100 µM,> 100 µM,,,,,,,,
Nc1c(Cl)ncnc1NCCCCCCCCCCCCNc1ncnc(Cl)c1N,> 100 µM,18.8 µM,3.02 µM,9.72 µM,20.5 µM,10.2 µM,,,,,,,,
COC1OC2COC(C)(C)OC2C(OC(C)=O)C1NC(=O)N(CCCl)N=O (stereo not given),> 100 µM,> 100 µM,> 100 µM,,> 100 µM,> 100 µM,,,,,,,,
C/C=C1\CN2CCc3c([nH]c4ccccc34)C2CC1CCO (stereo not given),> 100 µM,> 100 µM,> 100 µM,> 100 µM,> 100 µM,> 100 µM,,,,,,,,
COC(=O)[C@@]12CC(C(C)C)[C@H]3CC(C(=O)C=C1OC)[C@H]32 (stereo not given in full),> 100 µM,> 100 µM,> 100 µM,> 100 µM,> 100 µM,> 100 µM,,,,,,,,

SMILES,TGI (DLD-1 colon),TGI (M19-MEL melanoma),TGI (XF 498 CNS),TGI (RXF-631 renal),TGI (LXFL 529 NSCLC),TGI (DMS 273 small cell lung),TGI (DU-145 prostate),TGI (T-47D breast),TGI (NCI/ADR-RES ovarian),TGI (MDA-MB-231 breast),TGI (PC-3 prostate),GI50 (M19-MEL melanoma),GI50 (LXFL 529 NSCLC),GI50 (DMS 273 small cell lung)
O=C(Nc1ccc(Cl)c(Cl)c1)C(=O)C(C(=O)c1ccccc1-c1ccccc1)C1OC(=O)c2ccccc21 (stereo not given),30.1 µM,33.9 µM,26.5 µM,37.7 µM,21 µM,,,,,,,,,
CCOc1ccccc1N=Nc1c(-c2ccccc2)nn(C(=O)CC(=O)Nc2cccc(C)c2)c1-c1ccccc1,> 100 µM,> 100 µM,> 100 µM,> 100 µM,> 100 µM,> 100 µM,,,,,,,,
CN(/N=C\c1ccnc2ccccc12)c1ccc([N+](=O)[O-])cc1,,> 100 µM,> 100 µM,> 100 µM,> 100 µM,> 100 µM,,,,,,,,
COC(=O)C1C(=O)O[C@@H](c2cc(OC)c(OC)cc2OC)C1C(=O)OC (mixture of isomers),> 100 µM,> 100 µM,> 100 µM,> 100 µM,> 100 µM,> 100 µM,,,,,,,,
CCc1nc2ccc(N=Nc3c(O)ccc4ccccc34)cc2[nH]1,57.3 µM,33.8 µM,,,24.5 µM,35.3 µM,31.2 µM,59.7 µM,54.8 µM,49.5 µM,37.5 µM,,,
O=C1/C(=C/c2ccc(Cl)cc2)CNC/C1=C\c1ccc(Cl)cc1,6.78 µM,4.81 µM,7.28 µM,12.5 µM,2.4 µM,5.78 µM,7.57 µM,36.1 µM,9.61 µM,> 100 µM,21.2 µM,,,
O=C(c1ccc(Cl)cc1)c1ccc(OCCCOc2ccc(C(=O)c3ccc(Cl)cc3)cc2Cl)c(Cl)c1,> 100 µM,> 100 µM,> 100 µM,> 100 µM,> 100 µM,> 100 µM,,,,,,,,
CNS(=O)(=O)NNS(=O)(=O)c1ccc(OC)cc1,> 100 µM,> 100 µM,> 100 µM,> 100 µM,> 100 µM,> 100 µM,,,,,,,,
COC(=O)C1=CC2C=CC(C1C(=O)OC)C1C(C(=O)OC)=C(C(=O)OC)C(C(=O)OC)=C(C(=O)OC)C21OC (stereo not given),> 100 µM,> 100 µM,,> 100 µM,> 100 µM,> 100 µM,,,,,,,,
NC1=NN(c2ccccc2)C(=O)C1C(=O)C(=O)Nc1ccc(Cl)c(Cl)c1 (stereo not given),> 100 µM,> 100 µM,,> 100 µM,,> 100 µM,,,,,,,,
Cc1cc(C)c(-c2noc(-c3ccc(Cl)cc3)c2C2=NCCCN2)c(C)c1,> 100 µM,> 100 µM,54.8 µM,> 100 µM,> 100 µM,,,,,,,,,
Cc1nc2c(o1)C(=Nc1ccccc1)c1nc(C)oc1C2=Nc1ccccc1,67.9 µM,47.6 µM,33.2 µM,,45.1 µM,50.5 µM,,,,,,,,
CC1C2C=C(O)C(=O)C(C2=O)C1c1ccccc1 (stereo not given),> 100 µM,> 100 µM,,> 100 µM,> 100 µM,> 100 µM,,,,,,,,
Nc1ccccc1C(=O)CCC1C(=O)NC(=S)NC1=O,> 100 µM,> 100 µM,,> 100 µM,> 100 µM,> 100 µM,> 100 µM,> 100 µM,> 100 µM,,> 100 µM,,,
Clc1cccc(-c2nnc(-c3nn(-c4ccccc4)c4nc5ccccc5nc34)o2)c1,> 100 µM,> 100 µM,> 100 µM,,> 100 µM,> 100 µM,,,,,,,,
Cc1cc(=O)n(-c2cc3cccccc-3n2)[nH]1,> 100 µM,22.3 µM,7.46 µM,,16.9 µM,,,,,,,,,
N/N=C(/Cc1nc2ccc(C(=O)c3ccccc3)cc2[nH]c1=O)C(=O)Nc1ccc([N+](=O)[O-])cc1[N+](=O)[O-],,> 100 µM,> 100 µM,,> 100 µM,> 100 µM,,,,,,> 100 µM,> 100 µM,> 100 µM
